Assay results as given in patent publication US11752138B2 (VANDERBILT UNIVERSITY, priority 2020, dated 2023).

Target: Human LDHA (Homo sapiens (Human), UniProt P00338)
Assay: human LDHA primary biochemical assay (Example 1)
Conditions: biochemical LDHA inhibitory activity, assay of Example 1
Description: This example describes a human LDHA primary biochemical assay employed in the characterization of a compound of Formula I in an embodiment of the dislcosure.
Test compounds were placed in a Greiner Bio-One (Monroe, N.C.) 1536-well black solid bottom assay plate. 200 millimolar (mM) Tris HCl, pH 7.4, 100 micromolar (μM) EDTA and 0.01% TWEEN-20™, final concentration, was used as the assay buffer. The LDHA reagent was 2 nanomolar (nM) Human LDHA (Meridian Life Science, Inc., Memphis, Tenn.), final concentration, in assay buffer. The substrate reagent was 0.06 mM NADH and 0.2 mM sodium pyruvate, final concentration, in assay buffer. The resazurin/diaphorase coupling reagent was 0.037 mM resazurin and 0.133 milligrams per milliliter (mg/mL) diaphorase, final concentration, in assay buffer. The inhibition of LDHA activity was measured by fluorescence emission. […]

Row | Structure (SMILES) | IC50
1 | NS(=O)(=O)c1ccc(Cc2c(-c3ccc(F)c(C4=CCC(C(F)(F)F)CC4)c3)nn(-c3nc(C(=O)O)cs3)c2CC2CC2)cc1F (stereo not shown) [Compound 102, 2-(5-(cyclopropylmethyl)-3-(6-fluoro-4′-(trifluoromethyl)-2′,3′,4′,5′-tetrahydro-[1,1′-biphenyl]-3-yl)-4-(3-fluoro-4-sulfamoylbenzyl)-1H-pyrazol-1-yl)thiazole-4-carboxylic acid] | < 100 nM
2 | NS(=O)(=O)c1ccc(Cc2c(-c3ccc(F)c(C4=CCC5(CC4)CC5)c3)nn(-c3nc(C(=O)O)cs3)c2CC2CC2)cc1F [Compound 108, 2-(5-(cyclopropylmethyl)-3-(4-fluoro-3-(spiro[2.5]oct-5-en-6-yl)phenyl)-4-(3-fluoro-4-sulfamoylbenzyl)-1H-pyrazol-1-yl)thiazole-4-carboxylic acid] | < 100 nM
3 | CCC#Cc1cc(-c2nn(-c3nc(C(=O)O)cs3)c(CC3CC3)c2Cc2ccc([S+](N)(=O)[O-])c(F)c2)ccc1F [Compound 109, 2-(3-(3-(but-1-yn-1-yl)-4-fluorophenyl)-5-(cyclopropylmethyl)-4-(3-fluoro-4-sulfamoylbenzyl)-1H-pyrazol-1-yl)thiazole-4-carboxylic acid] | < 100 nM
4 | Cc1ccc(C2CC(c3cccc(-c4nn(-c5nc(C(=O)O)cs5)c(CC5CC5)c4Cc4ccc(S(N)(=O)=O)c(F)c4)c3)C2)s1 (stereo not shown) [Compound 133, 2-(5-(cyclopropylmethyl)-4-(3-fluoro-4-sulfamoylbenzyl)-3-(3-(3-(5-methylthiophen-2-yl)cyclobutyl)phenyl)-1H-pyrazol-1-yl)thiazole-4-carboxylic acid] | < 100 nM
5 | Cc1ccc(C#Cc2cccc(-c3nn(-c4nc(C(=O)O)cs4)c(C4CC4C4CC4)c3Cc3ccc(S(N)(=O)=O)c(F)c3)c2)s1 (stereo not shown) [Compound 134, 2-(5-([1,1′-bi(cyclopropan)]-2-yl)-4-(3-fluoro-4-sulfamoylbenzyl)-3-(3-((5-methylthiophen-2-yl)ethynyl)phenyl)-1H-pyrazol-1-yl)thiazole-4-carboxylic acid] | 100 to 1000 nM
6 | CC(C)c1ccc(-c2cc(-c3nn(-c4nc(C(=O)O)cs4)c(CC4CC4)c3Cc3ccc(S(N)(=O)=O)c(F)c3)ccc2F)cc1 [Compound 142, 2-(5-(cyclopropylmethyl)-3-(6-fluoro-4′-isopropyl-[1,1′-biphenyl]-3-yl)-4-(3-fluoro-4-sulfamoylbenzyl)-1H-pyrazol-1-yl)thiazole-4-carboxylic acid] | 100 to 1000 nM
7 | NS(=O)(=O)c1ccc(Cc2c(-c3cccc(C(=O)N4CCCC4)c3)nn(-c3nc(C(=O)O)cs3)c2CC2CC2)cc1 [Compound 145, 2-(5-(cyclopropylmethyl)-3-(3-(pyrrolidine-1-carbonyl)phenyl)-4-(4-sulfamoylbenzyl)-1H-pyrazol-1-yl)thiazole-4-carboxylic acid] | < 100 nM
8 | NS(=O)(=O)c1ccc(Cc2c(-c3ccc(F)c(C4=CCCCC4)c3)nn(-c3nc(C(=O)O)cs3)c2CC2CC2)cc1F [Compound 146, 2-(5-(cyclopropylmethyl)-3-(6-fluoro-2′,3′,4′,5′-tetrahydro-[1,1′-biphenyl]-3-yl)-4-(3-fluoro-4-sulfamoylbenzyl)-1H-pyrazol-1-yl)thiazole-4-carboxylic acid] | < 100 nM
9 | CC(C)(C)NC(=O)c1cc(-c2nn(-c3nc(C(=O)O)cs3)c(CC3CC3)c2Cc2ccc([S+](N)(=O)[O-])c(F)c2)ccc1F [Compound 147, 2-(3-(3-(tert-butylcarbamoyl)-4-fluorophenyl)-5-(cyclopropylmethyl)-4-(3-fluoro-4-sulfamoylbenzyl)-1H-pyrazol-1-yl) thiazole-4-carboxylic acid] | < 100 nM
10 | NS(=O)(=O)c1ccc(Cc2c(-c3ccc(F)c(-c4ccc5c(c4)CCC5)c3)nn(-c3nc(C(=O)O)cs3)c2CC2CC2)cc1F [Compound 155, 2-(5-(cyclopropylmethyl)-3-(3-(2,3-dihydro-1H-inden-5-yl)-4-fluorophenyl)-4-(3-fluoro-4-sulfamoylbenzyl)-1H-pyrazol-1-yl)thiazole-4-carboxylic acid] | < 100 nM
11 | NS(=O)(=O)c1ccc(Cc2c(-c3cccc(-c4ccc(C5CC5)cc4)c3)nn(-c3nc(C(=O)O)cs3)c2CC2CC2)cc1F [Compound 183, 2-(3-(4′-cyclopropyl-[1,1′-biphenyl]-3-yl)-5-(cyclopropylmethyl)-4-(3-fluoro-4-sulfamoylbenzyl)-1H-pyrazol-1-yl)thiazole-4-carboxylic acid] | < 100 nM
12 | CC(C)(C)NC(=O)c1cccc(-c2nn(-c3nc(C(=O)O)cs3)c(CC3CC3)c2Cc2ccc([S+](N)(=O)[O-])cc2)c1 [Compound 188, 2-(3-(3-(tert-butylcarbamoyl)phenyl)-5-(cyclopropylmethyl)-4-(4-sulfamoylbenzyl)-1H-pyrazol-1-yl)thiazole-4-carboxylic acid] | < 100 nM
13 | COc1ccc(-c2cc(-c3nn(-c4nc(C(=O)O)cs4)c(CC4CC4)c3Cc3ccc(S(N)(=O)=O)c(F)c3)ccc2F)cc1Cl [Compound 191, 2-(3-(3′-chloro-6-fluoro-4′-methoxy-[1,1′-biphenyl]-3-yl)-5-(cyclopropylmethyl)-4-(3-fluoro-4-sulfamoylbenzyl)-1H-pyrazol-1-yl)thiazole-4-carboxylic acid] | < 100 nM

Second part, the compound after the results:

Row | IC50 | Structure (SMILES)
14 | < 100 nM | NS(=O)(=O)c1ccc(Cc2c(-c3ccc(F)c(C4=Cc5ccccc5C4)c3)nn(-c3nc(C(=O)O)cs3)c2CC2CC2)cc1F [Compound 105, 2-(5-(cyclopropylmethyl)-3-(4-fluoro-3-(1H-inden-2-yl)phenyl)-4-(3-fluoro-4-sulfamoylbenzyl)-1H-pyrazol-1-yl)thiazole-4-carboxylic acid]
15 | < 100 nM | NS(=O)(=O)c1ccc(Cc2c(-c3ccc(F)c(C4=CCC(F)(F)CC4)c3)nn(-c3nc(C(=O)O)cs3)c2CC2CC2)cc1F [Compound 107, 2-(5-(cyclopropylmethyl)-4-(3-fluoro-4-sulfamoylbenzyl)-3-(4′,4′,6-trifluoro-2′,3′,4′,5′-tetrahydro-[1,1′-biphenyl]-3-yl)-1H-pyrazol-1-yl)thiazole-4-carboxylic acid]
16 | < 100 nM | NS(=O)(=O)c1ccc(Cc2c(-c3ccc(F)c(-c4ccc(F)c(F)c4)c3)nn(-c3nc(C(=O)O)cs3)c2CC2CC2)cc1F [Compound 136, 2-(5-(cyclopropylmethyl)-4-(3-fluoro-4-sulfamoylbenzyl)-3-(3′,4′,6-trifluoro-[1,1′-biphenyl]-3-yl)-1H-pyrazol-1-yl)thiazole-4-carboxylic acid]
17 | < 100 nM | NS(=O)(=O)c1ccc(Cc2c(-c3ccc(F)c(-c4ccc(C(F)(F)F)cc4)c3)nn(-c3nc(C(=O)O)cs3)c2CC2CC2)cc1F [Compound 138, 2-(5-(cyclopropylmethyl)-3-(6-fluoro-4′-(trifluoromethyl)-[1,1′-biphenyl]-3-yl)-4-(3-fluoro-4-sulfamoylbenzyl)-1H-pyrazol-1-yl)thiazole-4-carboxylic acid]
18 | < 100 nM | NS(=O)(=O)c1ccc(Cc2c(-c3ccc(F)c(-c4ccc(Cl)cc4)c3)nn(-c3nc(C(=O)O)cs3)c2CC2CC2)cc1F [Compound 139, 2-(3-(4′-chloro-6-fluoro-[1,1′-biphenyl]-3-yl)-5-(cyclopropylmethyl)-4-(3-fluoro-4-sulfamoylbenzyl)-1H-pyrazol-1-yl)thiazole-4-carboxylic acid]
19 | < 100 nM | NS(=O)(=O)c1ccc(Cc2c(-c3ccc(F)c(-c4ccc5c(c4)CCCC5)c3)nn(-c3nc(C(=O)O)cs3)c2CC2CC2)cc1F [Compound 143, 2-(5-(cyclopropylmethyl)-3-(4-fluoro-3-(5,6,7,8-tetrahydronaphthalen-2-yl)phenyl)-4-(3-fluoro-4-sulfamoylbenzyl)-1H-pyrazol-1-yl)thiazole-4-carboxylic acid]
20 | < 100 nM | NS(=O)(=O)c1ccc(Cc2c(-c3ccc(F)c(-c4ccc(Cl)c(F)c4)c3)nn(-c3nc(C(=O)O)cs3)c2CC2CC2)cc1F [Compound 144, 2-(3-(4′-chloro-3′,6-difluoro-[1,1′-biphenyl]-3-yl)-5-(cyclopropylmethyl)-4-(3-fluoro-4-sulfamoylbenzyl)-1H-pyrazol-1-yl)thiazole-4-carboxylic acid]
21 | < 100 nM | NS(=O)(=O)c1ccc(Cc2c(-c3ccc(F)c(-c4cccc(Cl)c4)c3)nn(-c3nc(C(=O)O)cs3)c2CC2CC2)cc1F [Compound 149, 2-(3-(3′-chloro-6-fluoro-[1,1′-biphenyl]-3-yl)-5-(cyclopropylmethyl)-4-(3-fluoro-4-sulfamoylbenzyl)-1H-pyrazol-1-yl)thiazole-4-carboxylic acid]
22 | < 100 nM | N[S+](=O)([O-])c1ccc(Cc2c(-c3ccc(F)c(C(=O)N4CCCC4)c3)nn(-c3nc(C(=O)O)cs3)c2CC2CC2)cc1F [Compound 154]
23 | < 100 nM | NS(=O)(=O)c1ccc(Cc2c(-c3ccc(F)c(-c4nc5ccccc5[nH]4)c3)nn(-c3nc(C(=O)O)cs3)c2CC2CC2)cc1F [Compound 160, 2-(3-(3-(1H-benzo[d]imidazol-2-yl)-4-fluorophenyl)-5-(cyclopropylmethyl)-4-(3-fluoro-4-sulfamoylbenzyl)-1H-pyrazol-1-yl)thiazole-4-carboxylic acid]
24 | < 100 nM | NS(=O)(=O)c1ccc(Cc2c(-c3cccc(-c4nc5ccccc5[nH]4)c3)nn(-c3nc(C(=O)O)cs3)c2CC2CC2)cc1F [Compound 189, 2-(3-(3-(1H-benzo[d]imidazol-2-yl)phenyl)-5-(cyclopropylmethyl)-4-(3-fluoro-4-sulfamoylbenzyl)-1H-pyrazol-1-yl)thiazole-4-carboxylic acid]
25 | < 100 nM | CN(C)c1cccc(-c2cc(-c3nn(-c4nc(C(=O)O)cs4)c(CC4CC4)c3Cc3ccc(S(N)(=O)=O)c(F)c3)ccc2F)c1 [Compound 194, 2-(5-(cyclopropylmethyl)-3-(3′-(dimethylamino)-6-fluoro-[1,1′-biphenyl]-3-yl)-4-(3-fluoro-4-sulfamoylbenzyl)-1H-pyrazol-1-yl)thiazole-4-carboxylic acid]
